The values that follow come from ChEMBL document CHEMBL1268824, “Synthesis and SAR studies of 1,4-benzoxazine MenB inhibitors: novel antibacterial agents against Mycobacterium tuberculosis” (Bioorg Med Chem Lett, 2010).

Experiment [1] deals with T1, 1,4-dihydroxy-2-naphthoyl-CoA synthase (Mycobacterium tuberculosis, UniProt P9WNP5).
T1 sequence (P9WNP5 whole entry): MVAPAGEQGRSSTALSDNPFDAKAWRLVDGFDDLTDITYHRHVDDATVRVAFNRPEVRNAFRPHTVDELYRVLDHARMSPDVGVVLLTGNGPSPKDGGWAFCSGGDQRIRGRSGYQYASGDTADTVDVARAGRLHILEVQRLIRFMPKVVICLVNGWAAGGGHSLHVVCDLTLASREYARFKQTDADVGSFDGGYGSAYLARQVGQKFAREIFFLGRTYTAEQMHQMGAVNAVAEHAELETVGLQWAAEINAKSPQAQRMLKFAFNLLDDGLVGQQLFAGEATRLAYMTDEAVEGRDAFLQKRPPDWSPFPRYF
The experiment in a line: Inhibition of Mycobacterium tuberculosis MenB expressed in Escherichia coli BL21 (DE3) by double-reciprocal plot analysis.

In experiment [2] the test system is Mycobacterium tuberculosis. As to the kind of experiment: Antibacterial activity against Mycobacterium tuberculosis H37Rv after 5 to 7 days by alamar blue assay. The format is functional. On the technique in general: Alamar Blue is a resazurin reagent that responds to reducing activity.
Experiment [3] deals with Escherichia coli. The experiment in a line: Inhibition of Escherichia coli MenE expressed in Escherichia coli BL21 (DE3) at 50 uM by double-reciprocal plot analysis.
Experiment [4] concerns the target T2, 1,4-dihydroxy-2-naphthoyl-CoA synthase (Mycobacterium tuberculosis) (UniProt P9WNP5).
T2 sequence (whole entry): T1 sequence (P9WNP5 whole entry)
The experiment in a line: Inhibition of Mycobacterium tuberculosis MenB expressed in Escherichia coli BL21 (DE3) at 125 ug/ml by double-reciprocal plot analysis.

Experiment [5] addresses T1, 1,4-dihydroxy-2-naphthoyl-CoA synthase. As to the kind of experiment: Non-competitive inhibition of Mycobacterium tuberculosis MenB expressed in Escherichia coli BL21 (DE3).
Experiment [6] has the same target. The experiment in a line: Non-competitive inhibition of Mycobacterium tuberculosis MenB expressed in Escherichia coli BL21 (DE3) assessed as inhibition of enzyme-substrate complex formation.
For the next experiment, the system named is Staphylococcus aureus. The experiment in a line: Antibacterial activity against Staphylococcus aureus P209 assessed as bacterial growth inhibition. The format is functional, organism-based.
In experiment [7] the target is T2, 1,4-dihydroxy-2-naphthoyl-CoA synthase (Mycobacterium tuberculosis). As to the kind of experiment: Inhibition of Mycobacterium tuberculosis MenB expressed in Escherichia coli BL21 (DE3) up to 100 uM by double-reciprocal plot analysis.
Experiment [8] has as its system Escherichia coli. The experiment in a line: Antibacterial activity against Escherichia coli M17 assessed as bacterial growth inhibition. In kind it is functional, organism-based.
For another experiment, the system named is Mycobacterium avium. As to the kind of experiment: Antibacterial activity against Mycobacterium avium. In kind it is functional.

In brackets after ≈: the same amount, converted by molar mass. Activity calls are given as the source filed them. The calls are words filed in the database; no cut-off is given here.

As a reminder, the IC50 is the midpoint of a concentration-inhibition curve. A lower IC50 goes with higher potency. By MIC is commonly meant the lowest concentration found to suppress growth. Turning to `CCS(=O)(=O)c1ccc2c(c1)N/C(=C\C(=O)OC)C(=O)O2`, 17.9 µM corresponded to half-maximal inhibition in experiment [1] (IC50). The same compound displayed an MIC in [2] of over 100 µg/mL.

For the compound `COC(=O)/C=C1\Nc2c(C)cccc2OC1=O`, in [1], the half-maximal inhibitory concentration (IC50) was found to be 24.1 µM. Inhibition of growth in [2] (MIC) required 25 µg/mL (≈ 107 µM).

The inhibition is the relative decrease from the control value, in per cent. Regarding `CC(C)CC(=O)/C=C1\Nc2cc(Cl)ccc2OC1=O`, the inhibition result in the experiment with Escherichia coli [3] is “inactive”. Also, the inhibition in experiment [4] worked out at 98%.

One may read the Ki as the dissociation constant of the complex between target and ligand, obtained from inhibition or displacement. With `COC(=O)/C=C1\Nc2ccccc2OC1=O`, the IC50 in [1] amounted to 10 µM. For the same compound, the Ki in [5] turned out to be 9.1 µM; in experiment [6], 67 µM. The same compound yielded a minimum inhibitory concentration (MIC) in experiment [2] of 0.64 µg/mL (≈ 2.92 µM).

`Cc1ccc2c(c1)OC(=O)/C(=C/C(=O)c1ccccc1Cl)N2`: the “growth inhibition (GI)” value in the experiment with Staphylococcus aureus and in the experiment on Escherichia coli [8] was “Active” each time. In addition, the inhibition result in experiment [7] is “inactive”. Also, the MIC in experiment [2] was over 100 µg/mL.

In turn, `COC(=O)/C=C1\Nc2ccccc2SC1=O` returned an Activity in the experiment with Mycobacterium avium of over 64 µg/mL. The IC50 in [1] was over 140 µM. Moreover, the minimum inhibitory concentration (MIC) in experiment [2] was over 100 µg/mL.

As for `CC(C)(C)/C(O)=C/c1nc2ccccc2oc1=O`, in the experiment with Escherichia coli [3], the inhibition entry is “inactive”. Also, in experiment [4], the inhibition came out at 68.4%.

In the case of `O=C1Oc2cc(Cl)ccc2N/C1=C\C(=O)c1ccccc1Cl`, the “growth inhibition (GI)” value with Staphylococcus aureus and in the experiment on Escherichia coli [8] was “Active” throughout. For the same compound, the inhibition entry in experiment [7] is “inactive”. Moreover, it took 3.13 µg/mL (≈ 9.37 µM) to inhibit growth in experiment [2] (MIC).

The compound `COC(=O)/C=C1\Nc2ccc([N+](=O)[O-])cc2OC1=O` registered an IC50 in experiment [1] of 20.3 µM. This compound also registered a minimum inhibitory concentration (MIC) in experiment [2] of over 100 µg/mL.

As to `O=C1Oc2cc(F)ccc2N/C1=C\C(=O)c1ccccc1Cl`, the “growth inhibition (GI)” value in the experiment with Staphylococcus aureus and in the experiment with Escherichia coli [8] was “Active” in each case. Also, the inhibition result in experiment [7] was “inactive”. The compound also had a minimum inhibitory concentration (MIC) in experiment [2] of 1.56 µg/mL (≈ 4.91 µM).

In experiment [1], `COC(=O)/C=C1\Nc2cc([N+](=O)[O-])ccc2OC1=O` gave a concentration for half-maximal inhibition (IC50) of 28.2 µM. Besides, the MIC in experiment [2] was 50 µg/mL (≈ 189 µM).

As for `COC(=O)/C=C1\Nc2ccccc2NC1=O`, the Activity in the experiment on Mycobacterium avium was over 64 µg/mL. In [1], this compound registered a half-maximal inhibitory concentration (IC50) of over 122 µM. Further, the MIC in experiment [2] is over 100 µg/mL.

On to `O=C1Oc2ccc(F)cc2N/C1=C\C(=O)c1ccccc1Cl`, for which the “growth inhibition (GI)” value in the experiment on Staphylococcus aureus and in the experiment with Escherichia coli [8] was “Active” in each case. In addition, the inhibition entry in [7] is “inactive”. Further, in experiment [2], inhibition of growth (MIC) required 3.13 µg/mL (≈ 9.85 µM).

Regarding `COC(=O)/C=C1\Nc2cc(Cl)ccc2OC1=O`, inhibition in [1] was half-maximal at 46.3 µM (IC50). Besides, the inhibition constant (Ki) in experiment [5] came out at 22.5 µM; in experiment [6], 18.5 µM. The compound further gave an MIC in experiment [2] of 5 µg/mL (≈ 19.7 µM).

In the case of `COC(=O)/C=C1\Nc2cc(C)ccc2OC1=O`, the half-inhibitory concentration (IC50) in experiment [1] amounted to 23.1 µM. Further, the MIC in [2] is over 100 µg/mL.

`COC(=O)/C=C1\Nc2ccc(Cl)cc2OC1=O` yielded an IC50 in experiment [1] of 35.7 µM. In [2], this compound showed a minimum inhibitory concentration (MIC) of 0.63 µg/mL (≈ 2.48 µM).

On to `CCS(=O)(=O)c1ccc2c(c1)N/C(=C\C(=O)C(C)(C)C)C(=O)O2`, for which the inhibition result with Escherichia coli [3] is “inactive”. This compound also displayed an inhibition in experiment [4] of 60.3%.

On to `COC(=O)/C=C1\Nc2ccc(C)cc2OC1=O`, for which the IC50 in experiment [1] is 18.2 µM. In experiment [2], this compound displayed a minimum inhibitory concentration (MIC) of 100 µg/mL (≈ 429 µM).

For `Cc1ccc2c(c1)N/C(=C\C(=O)c1ccccc1Cl)C(=O)O2`, the “growth inhibition (GI)” value with Staphylococcus aureus and with Escherichia coli [8] was “Active” in each case. In addition, the inhibition entry in [7] is “inactive”. In [2], this compound had an MIC of 100 µg/mL (≈ 319 µM).

For `COC(=O)/C=C1\Nc2cc(F)ccc2OC1=O`, 27 µM corresponded to half-maximal inhibition in [1] (IC50). In addition, the inhibition constant Ki in [5] was determined as 11.5 µM; in experiment [6] it was 10.1 µM. The same compound had an MIC in [2] of 0.63 µg/mL (≈ 2.66 µM).

For the compound `Cc1ccc2c(c1)N/C(=C\C(=O)CC(C)C)C(=O)O2`, in the experiment with Escherichia coli [3], the inhibition entry was “inactive”. The compound further showed an inhibition in experiment [4] of 77.3%.

With `COC(=O)/C=C1\Nc2ccc(F)cc2OC1=O`, in experiment [1], the concentration for half-maximal inhibition (IC50) stood at 30 µM. This compound also gave a minimum inhibitory concentration (MIC) in [2] of 0.63 µg/mL (≈ 2.66 µM).

`O=C1Oc2ccc(Cl)cc2N/C1=C\C(=O)c1ccccc1Cl`: the “growth inhibition (GI)” value in the experiment with Staphylococcus aureus and in the experiment with Escherichia coli [8] was “Active” throughout. Besides, the inhibition entry in experiment [7] is “inactive”. The same compound yielded an MIC in [2] of 12.5 µg/mL (≈ 37.4 µM).

`O=C1Oc2ccccc2N/C1=C\C(=O)c1ccccc1Cl`: the “growth inhibition (GI)” value in the experiment on Staphylococcus aureus and in the experiment on Escherichia coli [8] was “Active” throughout. Further, the inhibition entry in experiment [7] was “inactive”. In addition, in experiment [2], the lowest concentration to inhibit growth (MIC) was 3.13 µg/mL (≈ 10.4 µM).
